Assay results as given in ChEMBL document CHEMBL3045422, “Synthesis, characterization, and antimicrobial screening of some Mannich base sydnone derivatives” (2013).
Converted amounts (≈) assume the structure as drawn.

Tests used:
Assay type in all cases: functional
Bacillus subtilis [1] = assay: microbe, parasite or virus in culture; settings: read-out: IZ
Staphylococcus aureus [2] = assay: microbe, parasite or virus in culture
Pseudomonas aeruginosa [3] = assay: microbe, parasite or virus in culture; settings: read-out: IZ
Pseudomonas aeruginosa [4] = assay: microbe, parasite or virus in culture
Candida albicans [5] = assay: Antifungal activity against Candida albicans at 300 ug/ml; settings: read-out: IZ
Candida albicans [6] = assay: microbe, parasite or virus in culture
Escherichia coli [7] = assay: microbe, parasite or virus in culture
Bacillus subtilis [8] = assay: microbe, parasite or virus in culture
Staphylococcus aureus [9] = assay: microbe, parasite or virus in culture; settings: read-out: IZ
Escherichia coli [10] = assay: microbe, parasite or virus in culture; settings: read-out: IZ

SMILES	zone of inhibition at 300 µg/mL (Bacillus subtilis [1])	MIC (Staphylococcus aureus [2])	zone of inhibition at 300 µg/mL (Pseudomonas aeruginosa [3])	MIC (Pseudomonas aeruginosa [4])	zone of inhibition at 300 µg/mL (Candida albicans [5])	MIC (Candida albicans [6])	MIC (Escherichia coli [7])	MIC (Bacillus subtilis [8])	zone of inhibition at 300 µg/mL (Staphylococcus aureus [9])	zone of inhibition at 300 µg/mL (Escherichia coli [10])
COc1ccc(-[n+]2noc([O-])c2CNc2nc3ccc(Br)cc3s2)cc1	15 mm	100 µg/mL (≈ 231 µM)	12 mm	200 µg/mL (≈ 462 µM)	21 mm	80 µg/mL (≈ 185 µM)	300 µg/mL (≈ 692 µM)	100 µg/mL (≈ 231 µM)	18 mm	11 mm
COc1ccc(-[n+]2noc([O-])c2Cn2c(-c3ccc(Cl)cc3)nc3ccccc32)cc1	12 mm	300 µg/mL (≈ 693 µM)	10 mm	500 µg/mL (≈ 1160 µM)	14 mm	200 µg/mL (≈ 462 µM)	200 µg/mL (≈ 462 µM)	300 µg/mL (≈ 693 µM)	12 mm	15 mm
COc1ccc(-[n+]2noc([O-])c2CNc2nc3ccc(C#N)cc3s2)cc1	17 mm	80 µg/mL (≈ 211 µM)	10 mm	500 µg/mL (≈ 1320 µM)	17 mm	100 µg/mL (≈ 264 µM)	300 µg/mL (≈ 791 µM)	60 µg/mL (≈ 158 µM)	16 mm	12 mm
COc1ccc(-[n+]2noc([O-])c2CNc2nc3ccc([N+](=O)[O-])cc3s2)cc1	18 mm	80 µg/mL (≈ 200 µM)	16 mm	200 µg/mL (≈ 501 µM)	17 mm	100 µg/mL (≈ 250 µM)	300 µg/mL (≈ 751 µM)	40 µg/mL (≈ 100 µM)	16 mm	12 mm
COc1ccc(-c2nc3ccccc3n2Cc2c([O-])on[n+]2-c2ccc(OC)cc2)cc1	12 mm	300 µg/mL (≈ 700 µM)	12 mm	300 µg/mL (≈ 700 µM)	14 mm	200 µg/mL (≈ 467 µM)	300 µg/mL (≈ 700 µM)	200 µg/mL (≈ 467 µM)	11 mm	15 mm
COc1ccc(NCc2c([O-])on[n+]2-c2ccc(OC)cc2)cc1	18 mm	80 µg/mL (≈ 244 µM)	14 mm	100 µg/mL (≈ 305 µM)	20 mm	200 µg/mL (≈ 611 µM)	200 µg/mL (≈ 611 µM)	100 µg/mL (≈ 305 µM)	16 mm	12 mm
COc1ccc(-[n+]2noc([O-])c2CNc2nc3c([N+](=O)[O-])cccc3s2)cc1	30 mm	20 µg/mL (≈ 50.1 µM)	18 mm	100 µg/mL (≈ 250 µM)	32 mm	20 µg/mL (≈ 50.1 µM)	40 µg/mL (≈ 100 µM)	20 µg/mL (≈ 50.1 µM)	27 mm	23 mm
COc1ccc(-[n+]2noc([O-])c2CNc2nc3ccc(Cl)cc3s2)cc1	15 mm	200 µg/mL (≈ 514 µM)	13 mm	200 µg/mL (≈ 514 µM)	16 mm	100 µg/mL (≈ 257 µM)	200 µg/mL (≈ 514 µM)	200 µg/mL (≈ 514 µM)	14 mm	13 mm
COc1ccc(-[n+]2noc([O-])c2Cn2c(-c3ccc(Cl)cc3Cl)nc3ccccc32)cc1	10 mm	500 µg/mL (≈ 1070 µM)	12 mm	300 µg/mL (≈ 642 µM)	16 mm	200 µg/mL (≈ 428 µM)	300 µg/mL (≈ 642 µM)	500 µg/mL (≈ 1070 µM)	10 mm	12 mm
COc1ccc(-[n+]2noc([O-])c2CNc2ccc(F)cc2)cc1	16 mm	200 µg/mL (≈ 634 µM)	11 mm	300 µg/mL (≈ 951 µM)	17 mm	100 µg/mL (≈ 317 µM)	100 µg/mL (≈ 317 µM)	200 µg/mL (≈ 634 µM)	14 mm	17 mm
COc1ccc(-[n+]2noc([O-])c2CNc2ccccc2[N+](=O)[O-])cc1	13 mm	300 µg/mL (≈ 876 µM)	13 mm	200 µg/mL (≈ 584 µM)	14 mm	200 µg/mL (≈ 584 µM)	200 µg/mL (≈ 584 µM)	200 µg/mL (≈ 584 µM)	11 mm	14 mm
COc1ccc(-[n+]2noc([O-])c2CNc2nc3cc([N+](=O)[O-])ccc3s2)cc1	10 mm	500 µg/mL (≈ 1250 µM)	10 mm	500 µg/mL (≈ 1250 µM)	14 mm	200 µg/mL (≈ 501 µM)	300 µg/mL (≈ 751 µM)	500 µg/mL (≈ 1250 µM)	10 mm	12 mm
CC1(C)S[C@@H]2[C@H](NC(=O)[C@H](N)c3ccccc3)C(=O)N2[C@H]1C(=O)O [AMPICILLIN]	26 mm	250 µg/mL (≈ 715 µM)	29 mm	100 µg/mL (≈ 286 µM)	–	–	100 µg/mL (≈ 286 µM)	100 µg/mL (≈ 286 µM)	30 mm	31 mm
CCOc1ccc2nc(NCc3c([O-])on[n+]3-c3ccc(OC)cc3)sc2c1	13 mm	200 µg/mL (≈ 502 µM)	13 mm	200 µg/mL (≈ 502 µM)	14 mm	200 µg/mL (≈ 502 µM)	300 µg/mL (≈ 753 µM)	200 µg/mL (≈ 502 µM)	14 mm	13 mm
COc1ccc(-[n+]2noc([O-])c2Cn2c(-c3ccccc3[N+](=O)[O-])nc3ccccc32)cc1	12 mm	40 µg/mL (≈ 90.2 µM)	10 mm	500 µg/mL (≈ 1130 µM)	14 mm	200 µg/mL (≈ 451 µM)	200 µg/mL (≈ 451 µM)	300 µg/mL (≈ 677 µM)	21 mm	14 mm
COc1ccc(-[n+]2noc([O-])c2Cn2cnc3ccccc32)cc1	11 mm	300 µg/mL (≈ 931 µM)	10 mm	500 µg/mL (≈ 1550 µM)	12 mm	300 µg/mL (≈ 931 µM)	500 µg/mL (≈ 1550 µM)	300 µg/mL (≈ 931 µM)	11 mm	10 mm
COc1ccc(-[n+]2noc([O-])c2Cn2c(-c3ccccc3Br)nc3ccccc32)cc1	12 mm	500 µg/mL (≈ 1050 µM)	13 mm	200 µg/mL (≈ 419 µM)	13 mm	200 µg/mL (≈ 419 µM)	200 µg/mL (≈ 419 µM)	300 µg/mL (≈ 629 µM)	10 mm	14 mm
COc1ccc(-[n+]2noc([O-])c2CNc2nc3ccc(OC)cc3s2)cc1	12 mm	100 µg/mL (≈ 260 µM)	14 mm	200 µg/mL (≈ 520 µM)	15 mm	100 µg/mL (≈ 260 µM)	200 µg/mL (≈ 520 µM)	200 µg/mL (≈ 520 µM)	14 mm	13 mm
CN[C@@H]1[C@H](O[C@H]2[C@H](O[C@H]3[C@H](O)[C@@H](O)[C@H](N=C(N)N)[C@@H](O)[C@@H]3N=C(N)N)O[C@@H](C)[C@]2(O)C=O)O[C@@H](CO)[C@H](O)[C@H]1O [STREPTOMYCIN]	40 mm	0.125 µg/mL (≈ 0.215 µM)	34 mm	0.5 µg/mL (≈ 0.86 µM)	–	–	1 µg/mL (≈ 1.72 µM)	0.25 µg/mL (≈ 0.43 µM)	40 mm	28 mm
COc1ccc(-[n+]2noc([O-])c2CNc2ccccc2Cl)cc1	12 mm	300 µg/mL (≈ 904 µM)	10 mm	500 µg/mL (≈ 1510 µM)	12 mm	300 µg/mL (≈ 904 µM)	300 µg/mL (≈ 904 µM)	300 µg/mL (≈ 904 µM)	12 mm	12 mm
COc1ccc(-[n+]2noc([O-])c2CNc2nc3ccc(C)cc3s2)cc1	18 mm	200 µg/mL (≈ 543 µM)	10 mm	500 µg/mL (≈ 1360 µM)	17 mm	100 µg/mL (≈ 271 µM)	300 µg/mL (≈ 814 µM)	60 µg/mL (≈ 163 µM)	15 mm	12 mm
CCOc1ccc(NCc2c([O-])on[n+]2-c2ccc(OC)cc2)cc1	16 mm	40 µg/mL (≈ 117 µM)	15 mm	100 µg/mL (≈ 293 µM)	16 mm	200 µg/mL (≈ 586 µM)	200 µg/mL (≈ 586 µM)	80 µg/mL (≈ 234 µM)	17 mm	13 mm
COc1ccc(-[n+]2noc([O-])c2CNc2cc(Cl)ccc2Cl)cc1	12 mm	300 µg/mL (≈ 819 µM)	10 mm	500 µg/mL (≈ 1370 µM)	13 mm	300 µg/mL (≈ 819 µM)	500 µg/mL (≈ 1370 µM)	300 µg/mL (≈ 819 µM)	11 mm	10 mm
COc1ccc(-[n+]2noc([O-])c2CNc2ccc([N+](=O)[O-])cc2)cc1	12 mm	500 µg/mL (≈ 1460 µM)	14 mm	200 µg/mL (≈ 584 µM)	14 mm	200 µg/mL (≈ 584 µM)	200 µg/mL (≈ 584 µM)	200 µg/mL (≈ 584 µM)	10 mm	14 mm
OC(Cn1cncn1)(Cn1cncn1)c1ccc(F)cc1F [FLUCONAZOLE]	–	–	–	–	25 mm	100 µg/mL (≈ 327 µM)	–	–	–	–
O=C(O)c1cn(C2CC2)c2cc(N3CCNCC3)c(F)cc2c1=O [CIPROFLOXACIN]	31 mm	50 µg/mL (≈ 151 µM)	23 mm	–	–	–	25 µg/mL (≈ 75.4 µM)	–	30 mm	–
CC1(C)S[C@@H]2[C@H](NC(=O)Cc3ccccc3)C(=O)N2[C@H]1C(=O)O [PENICILLIN G]	35 mm	0.125 µg/mL (≈ 0.374 µM)	38 mm	0.25 µg/mL (≈ 0.748 µM)	–	–	0.5 µg/mL (≈ 1.5 µM)	0.25 µg/mL (≈ 0.748 µM)	45 mm	30 mm
